Laboratory results from patent publication US7510703B2, “UV-photoprotecting/sunscreen compositions comprising silane/siloxane derivatives of merocyanine sulfones” (L'Oreal, priority 2004, dated 2009).

Assay: UV absorption spectrum (λmax, E1%) of the UV filter compounds
Format: physicochemical
Conditions: for E1%: at main λmax; for E1% (shoulder): at shoulder; for λmax: main maximum

E1% (UV (CH2Cl2))	E1% (shoulder) (UV (CH2Cl2))	λmax (UV (CH2Cl2)) [nm]	λmax (shoulder) (UV (CH2Cl2)) [nm]	SMILES	E1% (UV (Ethanol))	E1% (shoulder) (UV (Ethanol))	λmax (UV (Ethanol)) [nm]	λmax (shoulder) (UV (Ethanol)) [nm]
–	–	–	–	COC(=O)/C(=C\C=C\N(C)CCC[Si](C)(O[Si](C)(C)C)O[Si](C)(C)C)S(=O)(=O)c1ccc(C)cc1 [Example 1]	1154	773	372	356
1367	1298	366	358	C#CCN(C)C=CC=C(C(=O)OCC)S(=O)(=O)c1ccccc1 [ethyl-5-[methyl(prop-2-ynyl)amino]-2-(phenylsulfonyl)penta-2,4-dienoate]	–	–	–	–
1346	1031	370	356	C=CCN(C)C=CC=C(C(=O)OC)S(=O)(=O)c1ccc(C)cc1 [methyl-5-[allyl(methyl)amino]-2-[(4-methylphenyl)sulfonyl]penta-2,4-dienoate]	–	–	–	–
